{
  "source": "ChEMBL document CHEMBL3352700",
  "about": "(Bioorg Med Chem Lett, 2015)",
  "key": {"[1]": {"experiment": "Effective permeability by PAMPA method", "assay_type": "ADME", "settings": "read-out: Peff"}, "[2]": {"experiment": "Cmax in rat at 300 mg/kg, po", "assay_type": "ADME, organism-based", "parameters": "dose 300 mg/kg, route oral", "settings": "in vivo"}, "[3]": {"experiment": "Oral bioavailability in IGS rat at 3 mg/kg administered as single dose", "assay_type": "ADME, organism-based", "settings": "in vivo"}, "[4]": {"experiment": "Cmax in Beagle Marshall dog at 1 mg/kg, po administered as single dose", "assay_type": "ADME, organism-based, Canis lupus familiaris", "parameters": "dose 1 mg/kg, route oral", "settings": "in vivo"}, "[5]": {"experiment": "Oral bioavailability in Beagle Marshall dog at 1 mg/kg administered as single dose", "assay_type": "ADME, organism-based, Canis lupus familiaris", "settings": "in vivo"}, "Rattus norvegicus [6]": {"test_system": "Rattus norvegicus", "experiment": "Volume of distribution at steady state in IGS rat at 3 mg/kg, po administered as single dose", "assay_type": "ADME, organism-based", "parameters": "dose 3 mg/kg, route oral", "settings": "in vivo"}, "[7]": {"experiment": "AUC (infinity) in IGS rat at 1 mg/kg, iv administered as single dose", "assay_type": "ADME, organism-based", "parameters": "time infinity, dose 1 mg/kg, route intravenous", "settings": "plasma"}, "[8]": {"experiment": "Volume of distribution at steady state in Beagle Marshall dog at 1 mg/kg administered as single dose", "assay_type": "ADME, organism-based, Canis lupus familiaris", "parameters": "dose 1 mg/kg", "settings": "in vivo, read-out: Vdss"}, "[9]": {"experiment": "Cmax in IGS rat at 3 mg/kg, po administered as single dose", "assay_type": "ADME, organism-based", "parameters": "dose 3 mg/kg, route oral", "settings": "in vivo"}, "[10]": {"experiment": "AUC (infinity) in Beagle Marshall dog at 1 mg/kg, po administered as single dose", "assay_type": "ADME, organism-based, Canis lupus familiaris", "parameters": "time infinity, dose 1 mg/kg, route oral", "settings": "plasma"}, "Rattus norvegicus [11]": {"test_system": "Rattus norvegicus", "experiment": "AUC (infinity) in IGS rat at 3 mg/kg, po administered as single dose", "assay_type": "ADME, organism-based, Plasma", "parameters": "time infinity, dose 3 mg/kg, route oral", "settings": "in vivo"}},
  "data": [
    {"smiles": "CN(C)CCn1c(CC(C)(C)C)nc2cc(S(=O)(=O)C3CN(C(N)=O)C3)ccc21", "values": [
      {"measurement": "Papp", "setting": "[1]", "value": 0.6, "unit": "×10⁻⁶ cm/s"}
    ]},
    {"smiles": "CN(C)CCn1c(CC(C)(C)C)nc2cc(S(=O)(=O)C3CN(C)C3)ccc21", "values": [
      {"measurement": "Papp", "setting": "[1]", "value": 7.8, "unit": "×10⁻⁶ cm/s"}
    ]},
    {"smiles": "CCN1CC(S(=O)(=O)c2ccc3c(c2)nc(CC(C)(C)C)n3CCN(C)C)C1", "values": [
      {"measurement": "Papp", "setting": "[1]", "value": 10, "unit": "×10⁻⁶ cm/s"}
    ]},
    {"smiles": "CN(C)CCn1c(CC(C)(C)C)nc2cc(S(=O)(=O)C3CN(CC(F)(F)F)C3)ccc21", "values": [
      {"measurement": "Papp", "setting": "[1]", "value": 18, "unit": "×10⁻⁶ cm/s"}
    ]},
    {"smiles": "CN(C)CCn1c(CC(C)(C)C)nc2cc(S(=O)(=O)C3CN(CCO)C3)ccc21", "values": [
      {"measurement": "Cmax", "setting": "[2]", "value": 1800, "unit": "ng/mL"},
      {"measurement": "bioavailability", "setting": "[3]", "value": 20, "unit": "%"},
      {"measurement": "Cmax", "setting": "[4]", "value": 102, "unit": "ng/mL"},
      {"measurement": "bioavailability", "setting": "[5]", "value": 72, "unit": "%"},
      {"measurement": "Vdss", "setting": "Rattus norvegicus [6]", "value": 5.696, "unit": "L/kg"},
      {"measurement": "AUC(0-inf)", "setting": "[7]", "value": 391, "unit": "ng·h/mL"},
      {"measurement": "Vd", "setting": "[8]", "value": 5.69, "unit": "L/kg"},
      {"measurement": "Cmax", "setting": "[9]", "value": 38, "unit": "ng/mL"},
      {"measurement": "AUC(0-inf)", "setting": "[10]", "value": 1000, "unit": "ng·h/mL"},
      {"measurement": "AUC", "setting": "Rattus norvegicus [11]", "value": 300, "unit": "ng·h/mL"},
      {"measurement": "Papp", "setting": "[1]", "value": 1.5, "unit": "×10⁻⁶ cm/s"}
    ]},
    {"smiles": "CN(C)CCn1c(CC(C)(C)C)nc2cc(S(=O)(=O)C3CN(S(C)(=O)=O)C3)ccc21", "values": [
      {"measurement": "Papp", "setting": "[1]", "value": 5.9, "unit": "×10⁻⁶ cm/s"}
    ]}
  ]
}
